Measured values: US20080070867A1, “2-Imidazolone and 2-Imidazolidinone Heterocyclic Inhibitors of Tyrosine Phosphatases” (Metabasis Therapeutics, Inc., priority 2005, published 2008)
pIC50: −log10 of the molar value.

Molecular target: T1, Human recombinant PTP-1B (Homo sapiens, UniProt P18031)
T1 construct: Human recombinant PTP-1B, containing amino acids 1-321, fused to GST enzyme; GST (glutathione S-transferase)
T1 sequence (P18031 1-321): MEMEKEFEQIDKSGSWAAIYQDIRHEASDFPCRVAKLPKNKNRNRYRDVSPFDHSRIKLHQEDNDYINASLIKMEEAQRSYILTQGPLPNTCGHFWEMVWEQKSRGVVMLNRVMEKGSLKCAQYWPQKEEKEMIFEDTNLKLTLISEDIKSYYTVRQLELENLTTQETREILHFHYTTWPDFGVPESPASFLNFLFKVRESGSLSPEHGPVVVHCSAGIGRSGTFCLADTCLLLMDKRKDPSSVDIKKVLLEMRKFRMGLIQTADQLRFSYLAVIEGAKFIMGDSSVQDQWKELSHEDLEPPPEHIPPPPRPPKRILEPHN
Assay: Assay for PTP-1B Activity (pNPP substrate)
Format: biochemical
Conditions: human recombinant PTP-1B (1-321) GST fusion, 2 mM pNPP, pH 7.4, 30° C., 20 min; read-out: Activity Code (IC50 range)
Description: The activity of the compounds as modulators of protein tyrosine phosphatase, including PTP-1B, may be measured in standard assays (see, e.g., Examples 41 and 42). Briefly, the assay described herein employs human recombinant PTP-1B and a pNPP substrate in a rescue assay.
Assay for PTP-1B Activity
Enzyme: Human recombinant PTP-1B, containing amino acids 1-321, fused to GST enzyme (glutathione S-transferase) purified by affinity chromatography (Huyer et al, 1997, J. Biol. Chem., 272, 843-852).
pNPP: p-Nitrophenyl Phosphate (Calbiochem)
Assay Buffer: 50 mM HEPES (pH 7.4), 100 mM NaCl, 2 mM EDTA, 3 mM DTT
(5×) pNPP substrate: 10 mM pNPP in assay buffer
Enzyme: 1 mg/ml PTP1B (1-321), dilute 1:200 in assay buffer
Assay buffer: 50 mM HEPES (pH 7.4), 100 mM NaCl, 2 mM EDTA, 3 mM DTT
Enzyme dilution buffer: 50 mM HEPES (pH 7.4), 100 mM NaCl, 2 mM EDTA, 3 mM DTT
Substrate 198 mM p-Nitrophenyl Phosphate (pNPP) store at 4° C.
The assay was carried out at 30° C. in 96 well plates. The reaction mixture in 60 ul contained 50 mM HEPES (pH 7.4), 100 mM NaCl, 2 mM EDTA, 3 mM DTT, and 2 mM p-Nitrophenyl Phosphate (pNPP). 5 ul of the test compound (inhibitor) dissolved in DMSO or DMSO alone for control was added to each well and the plate was mixed for 2 min. The reaction was initiated by adding 20 ul of diluted PTP1B (5 ng/ul in 50 mM HEPES (pH 7.4), 100 mM NaCl, 2 mM EDTA, 3 mM DTT). After 20 min at 30° C., the enzyme reaction was terminated by adding 100 ul of 2 M K2CO3 to each well. The phosphatase activity was detected by using Victor II plate reader (Wallac) with absorbance detection at 405 nm. All the assays were done at least in duplicate. The initial rate of pNP is plotted against the concentration of inhibitor.

| pIC50 | SMILES |
| --- | --- |
| 5.60 to 6.60 | CNC(=O)c1ccc(-c2cn(Cc3ccccc3)c(=O)n2Cc2ccc(C(F)(F)P(=O)(O)O)c(Br)c2)cc1 [Compound 28, ({4-[3-Benzyl-5-(4-methylcarbamoyl-phenyl)-2-oxo-2,3-dihydro-imidazol-1-ylmethyl]-2-bromo-phenyl}-difluoro-methyl)-phosphonic acid] |
| 5.60 to 6.60 | O=c1n(Cc2ccccc2)cc(-c2ccccc2)n1Cc1ccc(C(F)(F)P(=O)(O)O)c(Br)c1 [Compound 29, {[4-(3-Benzyl-2-oxo-5-phenyl-2,3-dihydro-imidazol-1-ylmethyl)-2-bromo-phenyl]-difluoro-methyl}-phosphonic acid] |
| 5.60 to 6.60 | O=c1n(Cc2ccccc2)cc(-c2ccc3c(c2)OCCO3)n1Cc1ccc(C(F)(F)P(=O)(O)O)c(Br)c1 [Compound 30, ({4-[3-Benzyl-5-(2,3-dihydro-benzo[1,4]dioxin-6-yl)-2-oxo-2,3-dihydro-imidazol-1-ylmethyl]-2-bromo-phenyl}-difluoro-methyl)-phosphonic acid] |
| 5.60 to 6.60 | N#Cc1cccc(-c2cn(Cc3ccccc3)c(=O)n2Cc2ccc(C(F)(F)P(=O)(O)O)c(Br)c2)c1 [Compound 31, ({4-[3-Benzyl-5-(3-cyano-phenyl)-2-oxo-2,3-dihydro-imidazol-1-ylmethyl]-2-bromo-phenyl}-difluoro-methyl)-phosphonic acid] |
| > 7.00 | CS(=O)(=O)c1ccc(-c2cn(Cc3cccc(N)c3)c(=O)n2Cc2ccc(C(F)(F)P(=O)(O)O)c(Br)c2)cc1 [Compound 32, ({4-[3-(3-Amino-benzyl)-5-(4-methanesulfonyl-phenyl)-2-oxo-2,3-dihydro-imidazol-1-ylmethyl]-2-bromo-phenyl}-difluoro-methyl)-phosphonic acid] |
| 5.60 to 6.60 | O=c1n(CC2CC2)cc(-c2ccccc2)n1Cc1ccc(C(F)(F)P(=O)(O)O)c(Br)c1 [Compound 33, {[2-Bromo-4-(3-cyclopropylmethyl-2-oxo-5-phenyl-2,3-dihydro-imidazol-1-ylmethyl)-phenyl]-difluoro-methyl}-phosphonic acid] |
| 5.60 to 6.60 | COc1cc(Cn2cc(-c3ccc(C(=O)O)cc3)n(Cc3ccc(C(F)(F)P(=O)(O)O)c(Br)c3)c2=O)cc(OC)c1 [Compound 34, 4-[3-[3-Bromo-4-(difluoro-phosphono-methyl)-benzyl]-1-(3,5-dimethoxy-benzyl)-2-oxo-2,3-dihydro-1H-imidazol-4-yl]-benzoic acid] |
| 5.60 to 6.60 | O=C(O)c1ccc(-c2cn(C3CC3)c(=O)n2Cc2ccc(C(F)(F)P(=O)(O)O)c(Br)c2)cc1 [Compound 35, 4-{3-[3-Bromo-4-(difluoro-phosphono-methyl)-benzyl]-1-cyclopropyl-2-oxo-2,3-dihydro-1H-imidazol-4-yl}-benzoic acid] |
| 5.60 to 6.60 | O=C(O)c1ccc(-c2cn(Cc3ccccn3)c(=O)n2Cc2ccc(C(F)(F)P(=O)(O)O)c(Br)c2)cc1 [Compound 36, 4-{3-[3-Bromo-4-(difluoro-phosphono-methyl)-benzyl]-2-oxo-1-pyridin-2-ylmethyl-2,3-dihydro-1H-imidazol-4-yl}-benzoic acid] |
| 5.60 to 6.60 | CCOC(=O)n1cc(-c2ccc(C(=O)OC)cc2)n(Cc2ccc(C(F)(F)P(=O)(O)O)c(Br)c2)c1=O [Compound 37, 3-[3-Bromo-4-(difluoro-phosphono-methyl)-benzyl]-4-(4-methoxycarbonyl-phenyl)-2-oxo-2,3-dihydro-imidazole-1-carboxylic acid ethyl ester] |
| 5.60 to 6.60 | COC(=O)c1ccc(-c2cn(C)c(=O)n2Cc2ccc(C(F)(F)P(=O)(O)O)c(Br)c2)cc1 [Compound 38, 4-{3-[3-Bromo-4-(difluoro-phosphono-methyl)-benzyl]-1-methyl-2-oxo-2,3-dihydro-1H-imidazol-4-yl}-benzoic acid methyl ester] |
| 5.60 to 6.60 | O=c1n(Cc2ccccc2)cc(-c2ccsc2)n1Cc1ccc(C(F)(F)P(=O)(O)O)c(Br)c1 [Compound 39, {[4-(3-Benzyl-2-oxo-5-thiophen-3-yl-2,3-dihydro-imidazol-1-ylmethyl)-2-bromo-phenyl]-difluoro-methyl}-phosphonic acid] |
| > 7.00 | CC(=O)Nc1cccc(Cn2cc(-c3ccc(S(C)(=O)=O)cc3)n(Cc3ccc(C(F)(F)P(=O)(O)O)c(Br)c3)c2=O)c1 [Compound 40, ({4-[3-(3-Acetylamino-benzyl)-5-(4-methanesulfonyl-phenyl)-2-oxo-2,3-dihydro-imidazol-1-ylmethyl]-2-bromo-phenyl}-difluoro-methyl)-phosphonic acid] |
| 5.60 to 6.60 | COC(=O)c1ccc(-c2c[nH]c(=O)n2Cc2ccc(C(F)(F)P(=O)(O)O)c(Br)c2)cc1 [Compound 41, 4-{3-[3-Bromo-4-(difluoro-phosphono-methyl)-benzyl]-2-oxo-2,3-dihydro-1H-imidazol-4-yl}-benzoic acid methyl ester] |
| 5.60 to 6.60 | Cn1cc(-c2ccc(C(=O)O)cc2)n(Cc2ccc(C(F)(F)P(=O)(O)O)c(Br)c2)c1=O [Compound 42, 4-{3-[3-Bromo-4-(difluoro-phosphono-methyl)-benzyl]-1-methyl-2-oxo-2,3-dihydro-1H-imidazol-4-yl}-benzoic acid] |
| 4.60 to 5.60 | O=c1n(Cc2ccc(C(F)(F)P(=O)(O)O)c(Br)c2)ccn1-c1ccccc1 [Compound 43, {[2-Bromo-4-(2-oxo-3-phenyl-2,3-dihydro-imidazol-1-ylmethyl)-phenyl]-difluoro-methyl}-phosphonic acid] |
| 5.60 to 6.60 | O=c1n(Cc2ccccc2)cc(-c2cccs2)n1Cc1ccc(C(F)(F)P(=O)(O)O)c(Br)c1 [Compound 44, {[4-(3-Benzyl-2-oxo-5-thiophen-2-yl-2,3-dihydro-imidazol-1-ylmethyl)-2-bromo-phenyl]-difluoro-methyl}-phosphonic acid] |
| > 7.00 | COC(=O)/C=C/c1ccc(-c2cn(C3CC3)c(=O)n2Cc2ccc(C(F)(F)P(=O)(O)O)c(Br)c2)cc1 [Compound 45, 3-(4-{3-[3-Bromo-4-(difluoro-phosphono-methyl)-benzyl]-1-cyclopropyl-2-oxo-2,3-dihydro-1H-imidazol-4-yl}-phenyl)-acrylic acid methyl ester] |
| > 7.00 | O=C(O)/C=C/c1ccc(-c2cn(C3CC3)c(=O)n2Cc2ccc(C(F)(F)P(=O)(O)O)c(Br)c2)cc1 [Compound 46, 3-(4-{3-[3-Bromo-4-(difluoro-phosphono-methyl)-benzyl]-1-cyclopropyl-2-oxo-2,3-dihydro-1H-imidazol-4-yl}-phenyl)-acrylic acid] |
| 6.60 to 7.00 | CCn1cc(-c2ccc(C(=O)OC)cc2)n(Cc2ccc(C(F)(F)P(=O)(O)O)c(Br)c2)c1=O [Compound 47, 4-{3-[3-Bromo-4-(difluoro-phosphono-methyl)-benzyl]-1-ethyl-2-oxo-2,3-dihydro-1H-imidazol-4-yl}-benzoic acid methyl ester] |
| 6.60 to 7.00 | CCCn1cc(-c2ccc(C(=O)OC)cc2)n(Cc2ccc(C(F)(F)P(=O)(O)O)c(Br)c2)c1=O [Compound 48, 4-{3-[3-Bromo-4-(difluoro-phosphono-methyl)-benzyl]-2-oxo-1-propyl-2,3-dihydro-1H-imidazol-4-yl}-benzoic acid methyl ester] |
| 5.60 to 6.60 | O=c1n(Cc2ccccc2)cc(-c2ccc3c(c2)CCCC3)n1Cc1ccc(C(F)(F)P(=O)(O)O)c(Br)c1 [Compound 49, ({4-[3-Benzyl-2-oxo-5-(5,6,7,8-tetrahydro-naphthalen-2-yl)-2,3-dihydro-imidazol-1-ylmethyl]-2-bromo-phenyl}-difluoro-methyl)-phosphonic acid] |
| 5.60 to 6.60 | CS(=O)(=O)c1ccc(Cn2ccn(Cc3ccc(C(F)(F)P(=O)(O)O)c(Br)c3)c2=O)cc1 [Compound 50, ({2-Bromo-4-[3-(4-methanesulfonyl-benzyl)-2-oxo-2,3-dihydro-imidazol-1-ylmethyl]-phenyl}-difluoro-methyl)-phosphonic acid] |
| 6.60 to 7.00 | COC(=O)COc1ccc(-c2cn(C3CC3)c(=O)n2Cc2ccc(C(F)(F)P(=O)(O)O)c(Br)c2)cc1 [Compound 51, (4-{3-[3-Bromo-4-(difluoro-phosphono-methyl)-benzyl]-1-cyclopropyl-2-oxo-2,3-dihydro-1H-imidazol-4-yl}-phenoxy)-acetic acid methyl ester] |
